In assay [1] the target is T1, Human PDGFRβ, cytoplasmic domain (GST-PDGFRβ) (Homo sapiens, UniProt P09619).
T1 construct: made in house
As to the kind of experiment: Human PDGFRβ biochemical inhibition assay (off-chip Mobility Shift Assay). In short, it runs like this:
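GST-tagged cytoplasmic domain (aa 557-1106) from baculovirus was incubated 1 h at room temperature with compound, CSKtide, ATP at Km and Mg²⁺ in HEPES buffer, pH 7.5. Phosphorylated and unphosphorylated peptide were separated by off-chip mobility shift, and the product ratio P/(P+S) gave percent inhibition.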

The target of assay [2] is T2, Human PDGFRα, cytoplasmic domain (GST-PDGFRα) (Homo sapiens, UniProt P16234).
T2 construct: made in house
As to the kind of experiment: Human PDGFRα biochemical inhibition assay (off-chip Mobility Shift Assay).

The term IC50 denotes the concentration needed to halve the response being measured.

T1 sequence (P09619 with tags, fused parts or gaps): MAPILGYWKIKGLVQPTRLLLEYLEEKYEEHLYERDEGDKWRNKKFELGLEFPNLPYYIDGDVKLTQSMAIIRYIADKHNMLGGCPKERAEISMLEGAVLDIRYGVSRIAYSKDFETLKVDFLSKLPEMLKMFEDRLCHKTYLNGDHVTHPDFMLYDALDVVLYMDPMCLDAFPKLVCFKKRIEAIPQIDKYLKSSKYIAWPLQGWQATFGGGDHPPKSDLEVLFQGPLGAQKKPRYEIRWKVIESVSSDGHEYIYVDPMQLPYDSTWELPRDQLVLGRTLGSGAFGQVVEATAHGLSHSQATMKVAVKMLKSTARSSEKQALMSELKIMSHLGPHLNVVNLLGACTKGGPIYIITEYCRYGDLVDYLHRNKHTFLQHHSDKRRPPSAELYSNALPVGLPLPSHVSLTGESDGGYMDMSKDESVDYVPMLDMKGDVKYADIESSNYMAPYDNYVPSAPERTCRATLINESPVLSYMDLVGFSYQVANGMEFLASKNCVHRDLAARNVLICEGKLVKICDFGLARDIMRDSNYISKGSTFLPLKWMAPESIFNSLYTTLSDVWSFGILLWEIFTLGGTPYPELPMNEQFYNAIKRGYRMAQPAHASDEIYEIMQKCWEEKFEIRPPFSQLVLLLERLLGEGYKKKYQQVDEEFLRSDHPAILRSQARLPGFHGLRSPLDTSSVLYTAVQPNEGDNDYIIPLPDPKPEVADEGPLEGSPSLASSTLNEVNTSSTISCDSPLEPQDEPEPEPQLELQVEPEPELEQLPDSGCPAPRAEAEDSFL
T2 sequence (P16234 550-1089 T674I): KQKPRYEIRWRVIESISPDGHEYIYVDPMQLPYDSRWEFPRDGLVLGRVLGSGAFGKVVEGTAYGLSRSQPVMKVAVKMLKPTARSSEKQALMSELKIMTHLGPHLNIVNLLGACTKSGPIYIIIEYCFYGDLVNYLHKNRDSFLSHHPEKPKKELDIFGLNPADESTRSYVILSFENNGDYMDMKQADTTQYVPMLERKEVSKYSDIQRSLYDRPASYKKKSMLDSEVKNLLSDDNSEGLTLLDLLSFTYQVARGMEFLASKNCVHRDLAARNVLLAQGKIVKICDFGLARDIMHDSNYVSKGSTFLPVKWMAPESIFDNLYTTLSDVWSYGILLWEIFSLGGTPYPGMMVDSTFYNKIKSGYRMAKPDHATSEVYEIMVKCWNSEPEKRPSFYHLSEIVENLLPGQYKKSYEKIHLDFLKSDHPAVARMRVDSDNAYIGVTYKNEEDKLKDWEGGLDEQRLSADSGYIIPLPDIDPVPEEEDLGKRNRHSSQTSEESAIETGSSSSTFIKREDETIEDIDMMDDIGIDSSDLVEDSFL

With `CCn1cc2ncc(N[C@@H](C)c3cccc(NC(=O)c4cnc(N5CCOCC5)s4)c3)nc2n1` [Compound 339, (S)-N-(3-(1-((2-ethyl-2H-pyrazolo[3,4-b]pyrazin-6-yl)amino)ethyl)phenyl)-2-morpholinothiazole-5-carboxamide], the figures for the IC50 in assay [1] and in assay [2] were 300 to 1000 nM and less than 300 nM, respectively.
Consider `CCn1cc2ncc(N[C@@H](C)c3cccc(NC(=O)c4cnc(N(C)C)s4)c3)nc2n1` [Compound 340, (S)-2-(dimethylamino)-N-(3-(1-((2-ethyl-2H-pyrazolo[3,4-b]pyrazin-6-yl)amino)ethyl)phenyl)thiazole-5-carboxamide], for which the 50% inhibitory concentration (IC50) in assay [1] and in assay [2] was less than 300 nM throughout.
Turning to `CCc1ncc(C(=O)Nc2cccc([C@H](C)Nc3cnc4cn(CC)nc4n3)c2)s1` [Compound 341, (S)-2-ethyl-N-(3-(1-((2-ethyl-2H-pyrazolo[3,4-b]pyrazin-6-yl)amino)ethyl)phenyl)thiazole-5-carboxamide], the half-maximal inhibitory concentration (IC50) in assay [1] and in assay [2] was less than 300 nM each time.
In the case of `CCn1cc2ncc(N[C@@H](C)c3cccc(NC(=O)c4cnc(-c5cnn(C)c5)s4)c3)nc2n1` [Compound 342, (S)-N-(3-(1-((2-ethyl-2H-pyrazolo[3,4-b]pyrazin-6-yl)amino)ethyl)phenyl)-2-(1-methyl-1H-pyrazol-4-yl) thiazole-5-carboxamide], the 50% inhibitory concentration (IC50) is no less than 1000 nM in assay [1] and 300 to 1000 nM in assay [2].
For `CCn1cc2ncc(N[C@@H](C)c3cccc(NC(=O)c4ccc(F)c(Cl)c4)c3)nc2n1` [Compound 343, (S)-3-chloro-N-(3-(1-((2-ethyl-2H-pyrazolo[3,4-b]pyrazin-6-yl)amino)ethyl)phenyl)-4-fluorobenzamide] the same measures were less than 300 nM and less than 300 nM.
For `CCn1cc2ncc(N[C@@H](C)c3cccc(NC(=O)c4ccc(C)c(F)c4)c3)nc2n1` [Compound 344, (S)-N-(3-(1-((2-ethyl-2H-pyrazolo[3,4-b]pyrazin-6-yl)amino)ethyl)phenyl)-3-fluoro-4-methylbenzamide], in that order: less than 300 nM and less than 300 nM.
For the molecule `CCn1cc2ncc(N[C@@H](C)c3cccc(NC(=O)c4ccc(Cl)c(C)c4)c3)nc2n1` [Compound 345, (S)-4-chloro-N-(3-(1-((2-ethyl-2H-pyrazolo[3,4-b]pyrazin-6-yl)amino)ethyl)phenyl)-3-methylbenzamide], the IC50 in assay [1] and in assay [2] was less than 300 nM in each case.
On to `CCn1cc2ncc(N[C@@H](C)c3cccc(NC(=O)c4ccc(C#N)cc4)c3)nc2n1` [Compound 346, (S)-4-cyano-N-(3-(1-((2-ethyl-2H-pyrazolo[3,4-b]pyrazin-6-yl)amino)ethyl)phenyl)benzamide], for which the IC50 in assay [1] and in assay [2] was 300 to 1000 nM each time.
As to `CCn1cc2ncc(N[C@@H](C)c3cccc(NC(=O)c4ccc(Cl)c(F)c4)c3)nc2n1` [Compound 347, (S)-4-chloro-N-(3-(1-((2-ethyl-2H-pyrazolo[3,4-b]pyrazin-6-yl)amino)ethyl)phenyl)-3-fluorobenzamide], the IC50 in assay [1] and in assay [2] was less than 300 nM throughout.
For `CCn1cc2ncc(N[C@@H](C)c3cccc(NC(=O)c4cnc(N(C)C)c(C)c4)c3)nc2n1` [Compound 348, (S)-6-(dimethylamino)-N-(3-(1-((2-ethyl-2H-pyrazolo[3,4-b]pyrazin-6-yl)amino)ethyl)phenyl)-5-methylnicotinamide], the half-inhibitory concentration (IC50) in assay [1] and in assay [2] was less than 300 nM in each case.
As to `CCn1cc2ncc(N[C@@H](C)c3cccc(NC(=O)c4cnc(C(C)C)s4)c3)nc2n1` [Compound 349, (S)-N-(3-(1-((2-ethyl-2H-pyrazolo[3,4-b]pyrazin-6-yl)amino)ethyl)phenyl)-2-isopropylthiazole-5-carboxamide], the half-maximal inhibitory concentration (IC50) in assay [1] and in assay [2] was less than 300 nM throughout.
With `CCn1cc2ncc(N[C@@H](C)c3cccc(NC(=O)c4cnc(Br)c(C)c4)c3)nc2n1` [Compound 350, (S)-6-bromo-N-(3-(1-((2-ethyl-2H-pyrazolo[3,4-b]pyrazin-6-yl)amino)ethyl)phenyl)-5-methylnicotinamide], the IC50 in assay [1] and in assay [2] was less than 300 nM in each case.
Regarding `CCn1cc2ncc(N[C@@H](C)c3cccc(NC(=O)c4cnc(NC5CCOCC5)c(C)c4)c3)nc2n1` [Compound 351, (S)-N-(3-(1-((2-ethyl-2H-pyrazolo[3,4-b]pyrazin-6-yl)amino)ethyl)phenyl)-5-methyl-6-((tetrahydro-2H-pyran-4-yl)amino)nicotinamide], the half-maximal inhibitory concentration (IC50) in assay [1] is no less than 1000 nM; in assay [2] it was 300 to 1000 nM.
For `CCn1cc2ncc(N[C@@H](C)c3cccc(NC(=O)c4cnc(NC5CC5)c(C)c4)c3)nc2n1` [Compound 352, (S)-6-(cyclopropylamino)-N-(3-(1-((2-ethyl-2H-pyrazolo[3,4-b]pyrazin-6-yl)amino)ethyl)phenyl)-5-methylnicotinamide], in that order: 300 to 1000 nM and less than 300 nM.
As for `CCn1cc2ncc(N[C@@H](C)c3cccc(NC(=O)c4cnc(C(F)F)c(C)c4)c3)nc2n1` [Compound 353], the IC50 in assay [1] and in assay [2] was less than 300 nM in each case.
In the case of `CCn1cc2ncc(N[C@@H](C)c3cccc(NC(=O)c4cnc(OC(C)C)c(Cl)c4)c3)nc2n1` [Compound 354, (S)-5-chloro-N-(3-(1-((2-ethyl-2H-pyrazolo[3,4-b]pyrazin-6-yl)amino)ethyl)phenyl)-6-isopropoxynicotinamide], the 50% inhibitory concentration (IC50) in assay [1] and in assay [2] was less than 300 nM throughout.
For the molecule `CCn1cc2ncc(N[C@@H](C)c3cccc(NC(=O)c4cncc(F)c4)c3)nc2n1` [Compound 355, (S)-N-(3-(1-((2-ethyl-2H-pyrazolo[3,4-b]pyrazin-6-yl)amino)ethyl)phenyl)-5-fluoronicotinamide], the IC50 was no less than 1000 nM in assay [1] and 300 to 1000 nM in assay [2].
For `CCn1cc2ncc(N[C@@H](C)c3cccc(NC(=O)c4cnc(OC)c(Cl)c4)c3)nc2n1` [Compound 356, (S)-5-chloro-N-(3-(1-((2-ethyl-2H-pyrazolo[3,4-b]pyrazin-6-yl)amino)ethyl)phenyl)-6-methoxynicotinamide] the same measures were less than 300 nM and less than 300 nM.
For `CCn1cc2ncc(N[C@@H](C)c3cccc(NC(=O)c4cc(Cl)c(Cl)s4)c3)nc2n1` [Compound 357, (S)-4,5-dichloro-N-(3-(1-((2-ethyl-2H-pyrazolo[3,4-b]pyrazin-6-yl)amino)ethyl)phenyl)thiophene-2-carboxamide], in that order: less than 300 nM and less than 300 nM.
For `CCn1cc2ncc(N[C@@H](C)c3cccc(NC(=O)c4cnc(N5CCOCC5)c(C)c4)c3)nc2n1` [Compound 358, (S)-N-(3-(1-((2-ethyl-2H-pyrazolo[3,4-b]pyrazin-6-yl)amino)ethyl)phenyl)-5-methyl-6-morpholinonicotinamide] the same measures were less than 300 nM and less than 300 nM.
With `CCn1cc2ncc(N[C@@H](C)c3cccc(NC(=O)c4ccc(OC)c(F)c4)c3)nc2n1` [Compound 359, (S)-N-(3-(1-((2-ethyl-2H-pyrazolo[3,4-b]pyrazin-6-yl)amino)ethyl)phenyl)-3-fluoro-4-methoxybenzamide], the IC50 in assay [1] and in assay [2] was less than 300 nM in each case.
